Data as given in paper PMC2912430 (Biochemistry, 2010).
Values joined by “and” are separate entries in the source; they are usually repeats but may differ in a detail not shown here. Identical values can stand only once.

Experiments:
[1] = target: T1, Escherichia coli IDI-1 (Escherichia coli, UniProt Q46822); test: Acid lability assay, inhibition of the isomerization of IPP to DMAPP by IDI-1; format: biochemical; conditions: for Type of inhibition: isomerization of IPP to DMAPP catalyzed by IDI-1
[2] = target: T2, Thermus thermophilus IDI-2 (Thermus thermophilus, UniProt Q53W52); test: Acid lability assay, inhibition of the isomerization of IPP to DMAPP by IDI-2; format: biochemical; conditions: for Type of inhibition: isomerization of IPP to DMAPP catalyzed by IDI-2
[3] = target: T2, Thermus thermophilus IDI-2; test: Product studies by 1H NMR, incubation with IDI-2; format: biochemical; conditions: for Isomerization (turnover as substrate) by NMR: IDI-2, 37 °C, spectra at one-hour intervals over 12 h; for Reactivity relative to the natural substrates (times less reactive): IDI-2, estimate based on NMR studies
[4] = test system: IDI-1; conditions: positively charged ammonium group at physiological pH; cited from earlier work
[5] = target: T1, Escherichia coli IDI-1; conditions: cited from earlier work
[6] = target: T2, Thermus thermophilus IDI-2; conditions: cited from earlier work

T1 sequence (Q46822 whole entry): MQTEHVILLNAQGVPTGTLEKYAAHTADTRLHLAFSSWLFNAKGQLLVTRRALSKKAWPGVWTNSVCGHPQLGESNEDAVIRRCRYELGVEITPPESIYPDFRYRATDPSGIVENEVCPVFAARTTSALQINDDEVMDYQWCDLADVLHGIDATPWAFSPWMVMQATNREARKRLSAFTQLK

Row | SMILES | IC50 [1] [µM] | Type of inhibition [1] | IC50 [2] [µM] | Type of inhibition [2] | Isomerization (turnover as substrate) by NMR [3] | Reactivity relative to the natural substrates (times less reactive) [3] | Km [5] [µM] | other results
1 | C#CCCOP(=O)(O)OP(=O)(O)O [1-OPP, 3-Butyn-1-yl diphosphate] | ~200 | competitive inhibitors | ~50 | competitive inhibitors | no evidence was seen for isomerization | at least 1000 times |  | 
2 | CN(C)CCOP(=O)(O)OP(=O)(O)O [N,N-Dimethyl-2-amino-1-ethyl diphosphate] |  |  |  |  |  |  |  | Affinity for IDI-1 [4]: sub-nanomolar affinity
3 | C=C(C)CCOP(=O)(O)OP(=O)(O)O [IPP, isopentenyl diphosphate] |  |  |  |  |  |  | 7.9 | Km [6]: 5.6 µM
4 | CC(C)=CCOP(=O)(O)OP(=O)(O)O [DMAPP, dimethylallyl diphosphate] |  |  |  |  |  |  | 14 | 
5 | C=C=CCOP(=O)(O)OP(=O)(O)O [2-OPP, 2,3-Butadien-1-yl diphosphate] | ~200 | competitive inhibitors | ~50 | competitive inhibitors | no evidence was seen for isomerization | at least 1000 times |  | Ki ([1]; KI, IDI-1, acid lability assay, competitive inhibition): 49 µM and 31 µM
